Results from paper PMC4453016, “Novel Bifunctional Cyclic Chelator for ^89Zr Labeling–Radiolabeling and Targeting Properties of RGD Conjugates” (Molecular Pharmaceutics, 2015).
Several values for one entry are separate records, joined by “and”; a condition that tells them apart may be missing. Equal values may be shown once.

Columns and labels:
[1] = Stability assay in 1000-fold molar excess of EDTA solution (ITLC); format: physicochemical; conditions: for transchelation in EDTA solution: 1000-fold molar excess of EDTA; for % intact starting species by incubation time: competitor EDTA 1000-fold excess, 37 °C, n = 3
Method: (§1) Determination of the stability of [^89Zr]DFO, [^89Zr]TAFC, and [^89Zr]FSC-RGD conjugates was carried out by incubating the radioligands in PBS, 1000-fold molar excess of EDTA solution with different pH (pH 7 and pH 6; radioligand vs EDTA: 25 μM vs 25 mM) as well as in human serum for 7 days at 37 °C, respectively. At selected time points three aliquots of PBS and EDTA solution were analyzed directly via ITLC, while the three serum aliquots were mixed with 500 μL of CH3CN, vortexed, and centrifuged at 20,000 rcf for 2 min prior to analysis.

[2] = Transchelation study with 1000-fold molar excess of TAFC or DFO (RP-HPLC); format: physicochemical; conditions: for % intact starting species by incubation time: RT, n = 3
Method: [^89Zr]DFO and [^89Zr]TAFC (50 μL each) were mixed with a 1000-fold molar excess of either TAFC or DFO for 7 days at RT. At selected time points aliquots of the solutions were analyzed directly via RP-HPLC. ([^89Zr]DFO tR = 4.8 min; [^89Zr]TAFC tR = 5.9 min). The transchelation was determined by the ratio of [^89Zr]DFO and [^89Zr]TAFC. Three replicates were analyzed for each radioligand.

[3] = Stability assay in PBS and human serum; format: physicochemical; conditions: period of 7 days, 37 °C; no demetalation was observed
Method: as §1

[4] = Distribution coefficient (logD), octanol/PBS; conditions: pH 7.4
[5] = Protein binding assay in fresh human serum (size exclusion spin column); conditions: 37 °C, incubation time 168 h
[6] = Biodistribution of [^89Zr]TAFC in healthy mice; format: in vivo, BALB/c mice; conditions: normal mice, i.v., 6 h p.i., n = 4
Method: For the evaluation of biodistribution, four healthy female BALB/c mice (Charles River Laboratories, Sulzfeld, GER) were intravenously injected with [^89Zr]TAFC (∼1.5 MBq/mouse, ∼4 μg of precursor) into the tail vein and sacrificed at 6 h postinjection (p.i.). For the evaluation of tumor uptake of [^89Zr]FSC(succ-RGD)3 female, athymic BALB/c nude mice (Charles River Laboratories) were used. For the induction of tumor xenografts mice were injected subcutaneously with 5 × 10^6 αvβ3 integrin positive M21 cells into the right hind limb and with 5 × 10^6 αvβ3 integrin negative M21-L cells (negative control) into the left hind limb of the same mouse (n = 4). The tumors were allowed to grow until they had reached a volume of 0.3 to 0.6 cm^3. On the day of the experiment [^89Zr]FSC(succ-RGD)3 (∼0.5 MBq/mouse, ∼0.5 μg of peptide) was intravenously injected in the lateral tail vein. Mice were sacrificed by cervical dislocation at 1, 2, and 4 h after injection. Organs (spleen, pancreas, stomach, intestine, kidney, liver, heart, and lung), blood, muscle tissue, bone, and tumors were dissected and weighted. As a comparison, four tumor-bearing mice were intravenously injected in the tail vein with [^68Ga]FSC(succ-RGD)3 (∼0.5 MBq/mouse, ∼0.5 μg of precursor) and sacrificed at 1 h p.i. Activity of the different samples was measured in the gamma counter. Results were expressed as percentage of injected dose per gram tissue (% ID/g).

SMILES	transchelation in EDTA solution ([1]; pH 7, after 7 days, ITLC)	% intact starting species by incubation time ([1]; pH 6, 1 h)	% intact starting species by incubation time ([1]; pH 6, 4 h)	% intact starting species by incubation time ([1]; pH 6, 1 d)	% intact starting species by incubation time ([1]; pH 6, 3 d)	% intact starting species by incubation time ([1]; pH 6, 5 d)	% intact starting species by incubation time ([1]; pH 7, 1 h)	% intact starting species by incubation time ([1]; pH 7, 4 h)	% intact starting species by incubation time ([1]; pH 7, 1 d)	% intact starting species by incubation time ([1]; pH 7, 3 d)	% intact starting species by incubation time ([1]; pH 7, 5 d)	% intact starting species by incubation time ([1]; pH 7, 7 d)	stability in PBS and human serum [3]	logD [4]	protein binding (%) [5]	also measured
CC(=O)N(O)CCCCCNC(=O)CCC(=O)N(O)CCCCCNC(=O)CCC(=O)N(O)CCCCCN [[^89Zr]DFO, desferrioxamine B, metal not drawn, reference compound]	~60%	94.6 ± 0.4%	63.5 ± 3.6%	38.2 ± 8.4%	6.4 ± 2.0%	6.0 ± 1.8%	95.5 ± 0.5%	76.0 ± 1.0%	55.4 ± 3.2%	41.0 ± 5.2%	43.3 ± 2.5%	42.2 ± 2.3%	high stability	-3	8.7 ± 1.0%	transchelation in EDTA solution ([1]; pH 6, after 3 days): more than 90%; % intact starting species by incubation time ([2]; competitor TAFC 1000-fold excess, pH 6, 1 h): 0.0 ± 0.0%; fraction transchelated in 1000-fold molar excess of TAFC ([2]; within 1 h): 100%
CC(=O)NC1CCCN(O)C(=O)/C=C(/C)CCOC(=O)C(NC(C)=O)CCCN(O)C(=O)/C=C(/C)CCOC(=O)C(NC(C)=O)CCCN(O)C(=O)/C=C(/C)CCOC1=O (centres unmarked) [[^89Zr]TAFC, triacetylfusarinine C, metal not drawn]	no transchelation	99.0 ± 0.1%	98.1 ± 0.2%	96.0 ± 0.6%	94.7 ± 0.3%	95.9 ± 0.3%	99.6 ± 0.1%	99.6 ± 0.1%	99.3 ± 0.2%	96.9 ± 0.3%	98.3 ± 0.1%	97.2 ± 0.2%	high stability	-2	6.8 ± 0.5%	transchelation in an EDTA challenging experiment ([1]; after 7 days): 3–5%; % intact starting species by incubation time ([1]; pH 6, 7 d): 94.4 ± 0.5%; % intact starting species by incubation time ([2]; competitor DFO 1000-fold excess, pH 6, 1 h): 96.7 ± 0.2%; % intact starting species by incubation time ([2]; competitor DFO 1000-fold excess, pH 6, 4 h): 91.9 ± 0.3%; % intact starting species by incubation time ([2]; competitor DFO 1000-fold excess, pH 6, 1 d): 74.2 ± 3.0%; % intact starting species by incubation time ([2]; competitor DFO 1000-fold excess, pH 6, 3 d): 53.0 ± 4.1%; % intact starting species by incubation time ([2]; competitor DFO 1000-fold excess, pH 6, 5 d): 43.3 ± 3.5%; % intact starting species by incubation time ([2]; competitor DFO 1000-fold excess, pH 6, 7 d): 40% and 39.8 ± 2.0%; blood activity [6]: 0.05 ± 0.01 % ID/g; renal retention (kidney) [6]: 0.86 ± 0.48 % ID/g; uptake of bone [6]: 0.04 ± 0.02 % ID/g
